Measured values published in article PMC6803848, “Exploring New Structural Features of the 18β-Glycyrrhetinic Acid Scaffold for the Inhibition of Anaplastic Lymphoma Kinase” (Molecules, 2019).
Converted amounts (≈) assume the structure as drawn.

Assays:
MCF-7 = experiment: MTT antiproliferative assay, MCF-7 cells; type: cell-based; details: Homo sapiens, MCF7; MCF-7, MTT
Procedure: (§1) All the cells were seeded in 96-well plates and incubated with 5% CO2 at 37 °C for 24 h. Next, the compounds and the reference were dissolved into the culture medium. The final concentration of DMSO in the medium was less than 0.5%. After the cells were treated with compounds for 48 h, the supernatant was removed and 5 mg/mL of a fresh prepared solution of MTT was added to each well and incubated with the cells at 37 °C for another 4 h. The medium was removed, and 100 μL of testing solution was added to each well. After an overnight incubation with 5% CO2 at 37 °C, the absorbance was measured at 490/630 nm by the microplate reader. The IC50 was calculated using GraphPad Prism version 6.0 software (San Diego, CA, USA) from the non-linear curve.

HepG2 [1] = experiment: MTT antiproliferative assay, HepG2 cells; type: cell-based, human; details: five concentrations, 24, 48 or 72 h, Figure 7
ALK = ALK (Homo sapiens, UniProt Q9UM73); experiment: Kinase activity determination (ELISA), ALK; type: biochemical; details: purified ALK, 10 μmol/L ATP solution, read-out: Inhibitory effect on ALK activity, IC50
Procedure: The effects of the compounds on the activities of the tyrosine kinase was determined using enzyme-linked immunosorbent assay (ELISA). Briefly, 20 μg/mL substrate [poly (Glu,Tyr)4:1], 50 μL aliquot of 10 μmol/L ATP solution diluted in kinase buffer (50 mmol/L HEPES pH 7.5, 50 mmol/L MgCl2, 0.5 mmol/L MnCl2, 0.2 mmol/L Na3VO4, and 1 mmol/L DTT) was added to each well; 1 μL of various concentrations of target compound and positive control drug diluted in 1% DMSO (v/v) were then added to each well. 1% DMSO was used as the negative control. After 5–10 min preincubation, the kinase reaction was initiated by the addition of purified ALK proteins diluted in 49 μL of kinase buffer. After 30 min preincubation, the anti-phosphotyrosine monoclonalantibody (100 μL; 1:500, diluted in 5 mg/mL BSA T-PBS) was then added. […] A 100 μL aliquot of a solution containing 0.03% H2O2 and 2 mg/mL o-phenylenediamine in 0.1 mol/L citrate buffer was added. The reaction was terminated by the addition of 50 μL of 2 mol/L H2SO4 as the color changed, and the plate was analyzed using a multi-well spectrophotometer at 490 nm.

Karpas299 = experiment: MTT antiproliferative assay, Karpas299 cells; type: cell-based; details: Homo sapiens, KARPAS-299
Procedure: as §1

HT29 = experiment: MTT antiproliferative assay, HT29 cells; type: cell-based; details: Homo sapiens, HT-29; for inhibition at 2 µg/mL: HT29, 2 μg/mL; for inhibition at 2 µg/mL / inhibition at 20 µg/mL: 48 h, MTT, read-out: Antiproliferative activity (growth inhibition, %); for inhibition at 20 µg/mL: HT29, 20 μg/mL; for IC50: HT29, MTT
Procedure: as §1

A549 = experiment: MTT antiproliferative assay, A549 cells; type: cell-based; details: Homo sapiens; for inhibition at 2 µg/mL: A549, 2 μg/mL; for inhibition at 2 µg/mL / inhibition at 20 µg/mL: 48 h, MTT, read-out: Antiproliferative activity (growth inhibition, %); for inhibition at 20 µg/mL: A549, 20 μg/mL; for IC50: A549, MTT
Procedure: as §1

LO2 cells = experiment: MTT cytotoxicity assay, non-tumorigenic liver LO2 cell; type: cell-based; details: 0.064–40.0 μg/mL, 48 h, Figure 8
Procedure: Given the mentioned results, the most efficient compound 3j was selected for in depth study, and it was evaluated in different concentrations (0.064–40.0 μg/mL) towards HepG2 cell line and non-tumorigenic liver LO2 cell. A 48 h continuous drug exposure protocol was employed by the MTT cytotoxicity assay.
as §1

HepG2 [2] = experiment: MTT antiproliferative assay, HepG2 cells; type: cell-based; details: Homo sapiens
Procedure: as §1

PC-3 = experiment: MTT antiproliferative assay, PC-3 cells; type: cell-based; details: Homo sapiens; PC-3, MTT
Procedure: as §1

Sequence of ALK (Q9UM73 19-1620): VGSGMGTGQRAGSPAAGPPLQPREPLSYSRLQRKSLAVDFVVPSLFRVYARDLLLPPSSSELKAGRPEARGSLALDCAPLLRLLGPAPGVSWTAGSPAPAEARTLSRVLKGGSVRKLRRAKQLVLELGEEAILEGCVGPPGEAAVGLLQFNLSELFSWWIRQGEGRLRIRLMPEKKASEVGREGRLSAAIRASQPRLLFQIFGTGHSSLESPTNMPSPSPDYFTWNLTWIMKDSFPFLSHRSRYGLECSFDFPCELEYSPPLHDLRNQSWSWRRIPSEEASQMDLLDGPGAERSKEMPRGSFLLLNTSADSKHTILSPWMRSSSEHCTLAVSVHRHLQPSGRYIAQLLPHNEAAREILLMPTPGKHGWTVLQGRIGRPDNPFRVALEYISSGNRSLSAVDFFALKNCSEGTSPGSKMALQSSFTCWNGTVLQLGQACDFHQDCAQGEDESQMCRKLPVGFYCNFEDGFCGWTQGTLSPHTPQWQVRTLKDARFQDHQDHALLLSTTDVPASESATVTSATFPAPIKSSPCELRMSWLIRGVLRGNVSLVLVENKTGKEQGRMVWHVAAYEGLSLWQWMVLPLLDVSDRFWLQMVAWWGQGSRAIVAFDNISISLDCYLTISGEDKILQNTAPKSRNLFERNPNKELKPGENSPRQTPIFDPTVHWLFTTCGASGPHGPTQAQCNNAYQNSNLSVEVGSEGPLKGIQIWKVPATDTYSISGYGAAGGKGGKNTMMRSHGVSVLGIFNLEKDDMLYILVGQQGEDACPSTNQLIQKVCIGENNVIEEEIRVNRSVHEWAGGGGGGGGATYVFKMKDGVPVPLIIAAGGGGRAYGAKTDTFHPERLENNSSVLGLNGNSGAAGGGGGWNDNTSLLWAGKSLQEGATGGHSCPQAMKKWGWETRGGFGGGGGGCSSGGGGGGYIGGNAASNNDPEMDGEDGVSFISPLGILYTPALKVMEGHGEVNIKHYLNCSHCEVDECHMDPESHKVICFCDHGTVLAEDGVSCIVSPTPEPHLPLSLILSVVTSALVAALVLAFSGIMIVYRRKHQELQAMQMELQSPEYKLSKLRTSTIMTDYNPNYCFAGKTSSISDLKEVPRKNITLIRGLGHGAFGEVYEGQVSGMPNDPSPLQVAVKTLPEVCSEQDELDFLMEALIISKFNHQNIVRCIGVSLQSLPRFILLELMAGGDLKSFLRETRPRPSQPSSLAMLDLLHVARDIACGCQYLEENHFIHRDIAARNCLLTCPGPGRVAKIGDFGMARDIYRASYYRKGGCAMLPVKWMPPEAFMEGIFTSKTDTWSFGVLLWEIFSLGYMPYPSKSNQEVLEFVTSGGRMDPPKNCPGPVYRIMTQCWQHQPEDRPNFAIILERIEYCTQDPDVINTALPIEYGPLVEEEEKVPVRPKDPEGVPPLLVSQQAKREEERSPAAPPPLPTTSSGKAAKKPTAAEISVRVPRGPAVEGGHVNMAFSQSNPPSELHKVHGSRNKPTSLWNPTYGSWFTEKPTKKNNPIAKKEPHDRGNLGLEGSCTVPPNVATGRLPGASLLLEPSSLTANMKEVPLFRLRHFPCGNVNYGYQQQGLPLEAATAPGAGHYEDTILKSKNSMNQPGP

IC50 (MCF-7) | melting point | IC50 (ALK) | IC50 (Karpas299) | IC50 (HT29) | IC50 (A549) | IC50 (HepG2 [2]) | IC50 (PC-3) | SMILES | Inhibition of proliferation of HepG2 cell, concentration and time dependence (HepG2 [1]) | inhibition at 2 µg/mL (HT29) | inhibition at 20 µg/mL (HT29) | inhibition at 2 µg/mL (A549) | inhibition at 20 µg/mL (A549) | Toxic action towards LO2 cells (LO2 cells)
5.26 µg/mL (≈ 8 µM) | 239.1 to 240.7 °C | 121 nM | 5.59 µg/mL (≈ 8.5 µM) | 3.19 µg/mL (≈ 4.85 µM) | 2.81 µg/mL (≈ 4.27 µM) | 5.55 µg/mL (≈ 8.44 µM) | 5.96 µg/mL (≈ 9.06 µM) | CC1(C)C2CC[C@]3(C)[C@H](C(=O)C=C4[C@@H]5C[C@@](C)(C(=O)O)CC[C@]5(C)CC[C@]43C)[C@@]2(C)CC[C@@H]1OC(=O)Nc1cccc(C(F)(F)F)c1 (stereo partly drawn) [3j, 3β-(((3-(trifluoromethyl)phenyl)carbamoyl)oxy)-11-oxo-olean-12-en-30-oic acid] | inhibited the proliferation of HepG2 cell in a significant concentration manner, whereas it did not occur in a time-dependent manner | 24.8% | 99.6% | 17.7% | 88.3% | did not exhibit significant toxic action
7 µg/mL (≈ 9.64 µM) | 248.8 to 251.7 °C | 278 nM | 9.16 µg/mL (≈ 12.6 µM) | 6.47 µg/mL (≈ 8.91 µM) | 2.93 µg/mL (≈ 4.04 µM) | 11.2 µg/mL (≈ 15.5 µM) | 10.3 µg/mL (≈ 14.2 µM) | CC1(C)C2CC[C@]3(C)[C@H](C(=O)C=C4[C@@H]5C[C@@](C)(C(=O)O)CC[C@]5(C)CC[C@]43C)[C@@]2(C)CC[C@@H]1OC(=O)Nc1cc(C(F)(F)F)cc(C(F)(F)F)c1 (stereo partly drawn) [3k, 3β-(((3,5-bis (trifluoromethyl)phenyl)carbamoyl)oxy)-11-oxo-olean-12-en-30-oic acid] |  | 10.8% | 94.8% | 18.8% | 88.8% | 
7.86 µg/mL (≈ 12.7 µM) | 279.8 to 280.6 °C |  | 11.4 µg/mL (≈ 18.5 µM) | 7.3 µg/mL (≈ 11.8 µM) | 3.24 µg/mL (≈ 5.24 µM) | 4.75 µg/mL (≈ 7.69 µM) | 10.7 µg/mL (≈ 17.3 µM) | Cc1cc(C)cc(NC(=O)O[C@H]2CC[C@@]3(C)C(CC[C@]4(C)[C@@H]3C(=O)C=C3[C@@H]5C[C@@](C)(C(=O)O)CC[C@]5(C)CC[C@]34C)C2(C)C)c1 (stereo partly drawn) [3o, 3β-(((3,5-dimethylphenyl)carbamoyl)oxy)-11-oxo-olean-12-en-30-oic acid] |  | 55.8% | 98.2% | 24.4% | 86.3% | 
